Test results taken from US11351151B2, “Compound having anticancer activity and preparation method and application” (3D Medicines (Beijing) Co., Ltd., priority 2016, dated 2022).
“And” between values parts separate entries of the source, which are not always exact repeats. Identical values can stand only once. “Also recorded” adds a separate entry of the source.

Legend:
JHH5 = test: Cell proliferation assay (Alamar Blue); assay type: cell-based; conditions: 144 h; JHH5 liver cancer cell line; 6 days
Outline: (§1)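 Seeding density per line set in pilot runs (500–1×10^4/well); treatment began after 4 h with a 3.16-fold, nine-point series from 30 or 100 μM, in duplicate. Six days later, 1–4 h AlamarBlue incubation, fluorescence read, inhibition relative to control wells fitted for IC50.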

MDA-MB-435S = test: Cell proliferation assay (Alamar Blue); assay type: cell-based; conditions: Homo sapiens, 144 h; MDA-MB-435S tumor cell line; 6 days
Outline: as §1

TE-15 = test: Cell proliferation assay (Alamar Blue); assay type: cell-based; conditions: Homo sapiens, 144 h; TE-15 tumor cell line; 6 days
Outline: as §1

Hep3B2.1-7 = test: Cell proliferation assay (Alamar Blue); assay type: cell-based; conditions: 144 h; Hep3B2.1-7 liver cancer cell line; 6 days
Outline: as §1

TE-6 = test: Cell proliferation assay (Alamar Blue); assay type: cell-based; conditions: Homo sapiens, 144 h; TE-6 tumor cell line; 6 days
Outline: as §1

LC-2-ad = test: Cell proliferation assay (Alamar Blue); assay type: cell-based; conditions: Homo sapiens, 144 h; LC-2-ad tumor cell line; 6 days
Outline: as §1

NCl-H661 = test: Cell proliferation assay (Alamar Blue); assay type: cell-based; conditions: 144 h; NCl-H661 tumor cell line; 6 days
Outline: as §1

CCRF-CEM = test: Cell proliferation assay (Alamar Blue); assay type: cell-based; conditions: Homo sapiens, 144 h; CCRF-CEM tumor cell line; 6 days
Outline: as §1

[1] = test system: 54 commercial tumor cell lines; test: Cell proliferation assay (Alamar Blue), summary over the panel; assay type: cell-based; conditions: in almost all tumor cell lines
Procedure: 1. Instruments and Materials • Thermo 311 CO2 incubator; Haier biosafety cabinet; Molecular Devices microplate reader; Xiangyi brand L530 desktop low speed centrifuge; Olympus IX51 inverted fluorescence microscope, DMEM, RPMI 1640, MEM, DMEM/F12 1:1 medium, Fetal bovine serum, 0.25% trypsin solution, phosphate buffer (Thermo Fisher Shanghai Co., Ltd.); sigma dimethyl sulfoxide (DMSO), resazurin; 54 commercial tumor cell lines (including 26 liver cancer cell lines). Experimental drugs: compounds 1-12 and active drug Linifanib; chemotherapeutic drug Doxorubicin (HY-15142; Shanghai Qianyuan Biomedical Technology Co., Ltd.).
2. Experimental Methods • 2.1 Cultivation of different cell lines • 54 cell lines were cultured in a culture medium containing fetal bovine serum and placed in a 5% CO 2 incubator at 37° C. for incubation. The cells were all grown in an adherent state, and the growth was observed under an inverted microscope, and subculture was performed when the cell confluence rate reached 80%-90%. The proportion and quantity of passage were determined by experimental needs. The ratio of subculture of this cell line was generally 1:2^˜1:3. • 2.2 inhibition effect on the proliferation of different tumor cell lines • Cell test: 54 cell lines in logarithmic growth phase were inoculated in 96-well culture plates at 500^˜1×10^4/well (the optimal seeding density of each cell line was determined in pre-experiment), After incubating at 37° C. for 4 h in a 5% CO2 humidification incubator, added 10 μL of compounds 1-12 or Linifanib to each well, and tested 9 drug concentration gradients for each compound (diluted from the highest concentration of the test by 3.16 times). The solubility of each compound was different at a starting concentration of 30 or 100 μM, respectively. The QC reference compound Doxorubicin was added simultaneously to each cell line test, and the final drug concentrations were 10, 3.16, 1, 0.31, 0.1, 0.03, 0.01, 0.003, and 0.001 μM, respectively. In addition, a positive control group (100% inhibition) and a negative control group (0% inhibition) were set at the same time. The drug group was repeated for 2 wells per concentration, and the positive control group and the negative control group were repeated for 6 wells. After the culture was continued for 6 days in the incubator, AlamarBlue test operation was followed; • AlamarBlue test procedure: Incubated with 10 μL of AlamarBlue reagent per well for 1-4 h, shook for 1-2 min, MD microplate reader EX: 560 nm, EM: 590 nm wavelength to measure fluorescence, recorded the results, calculated the cell inhibition rate of the compound of the invention. […]

[2] = Plasma incubation stability study; assay type: in vitro ADME, SD rat; conditions: for Residual intermediate: rat plasma, 37° C., 2 μg/mL added, listed as intermediate
Procedure: The purpose of this example was to investigate the stability of the precursor Linifanib-C12-AA5 (compound 8) and the intermediate Linifanib-C12-Asp (compound 12) in plasma, liver homogenate and spleen homogenate (precursor Linifanib-C12-AA5 metabolizes into the intermediates Linifanib-C12-Asp and Linifanib; the intermediate Linifanib-C12-Asp is further metabolized to form Linifanib), and the metabolites were analyzed quantitatively, and the stability of the incubation system was verified with positive drugs, providing references for compound drug evaluation.
• Instrument: AP13000 LC/MS, ABI • Materials: Male SD rats (200-250 g), Beijing Vital River • Test samples: positive drugs and their metabolites M1 and M2, Linifanib-C12-AA5 and its metabolites Linifanib-C12-ASP and Linifanib. 2. Stability study of Linifanib-C12-AA5 and Linifanib-C12-Asp • 2.1 Linifanib-C12-AA5 and Linifanib-C12-Asp plasma incubation stability study protocol Test animal • Type: SD rat; Quantity: 2 • Sex: male; weight: 200-250 g;
Experimental Procedure • 1. Animal blood was collected, blood samples were placed in EDTA anticoagulation tubes, centrifuged at 3000 g for 15 min at 4° C., plasma was separated, and 2 blood samples were mixed in equal volumes; • 2. Weighed and dissolved a certain amount of Linifanib-C12-AA5/Linifanib-C12-Asp in DMSO:MeOH (2:8), prepared 200 μM mother liquor by purity, and added the compound to the plasma to a final concentration of 2 μg/mL. The organic ratio in the system was not more than 0.5%. • 3. Incubated in a 37° C. water bath and set the sampling points to 0, 0.5, 1, 2, 4, 6, and 8 h. At each sampling point, 100 μL of each sample was added to 300 μL of acetonitrile (with internal standard) for precipitation, centrifuged at 12,000 rpm for 5 min, and 200 μL of supernatant was taken for analysis by LC-MS/MS. • 4. Configured the standard curve to quantify Linifanib, Linifanib-C12-Asp and residual Linifanib-C12-AA5. • 2.2 Linifanib-C12-AA5 and Linifanib-C12-Asp liver/spleen homogenate incubation stability study protocol Test animal • Type: SD rat; Quantity: 2 • Sex: Male; Weight: 200-250 g

[3] = rat plasma incubation up to 8 h

| Structure (SMILES) | IC50 (JHH5) | IC50 (MDA-MB-435S) | IC50 (TE-15) | IC50 (Hep3B2.1-7) | IC50 (TE-6) | IC50 (LC-2-ad) | IC50 (NCl-H661) | IC50 (CCRF-CEM) | IC50 values compared with Linifanib [1] | level of Linifanib produced in plasma [2, 3] | stability in plasma ([2]; rat plasma incubation up to 8 h, listed as Linifanib-C12-Asp) | Residual intermediate ([2]; 0 h) | Residual intermediate ([2]; 0.5 h) | Residual intermediate ([2]; 1 h) | Residual intermediate ([2]; 2 h) | Residual intermediate ([2]; 4 h) | Residual intermediate ([2]; 6 h) | Residual intermediate ([2]; 8 h) | production of the intermediates Linifanib-C12-Asp and Linifanib in plasma [2, 3] | stability in plasma [2, 3] |
| --- | --- | --- | --- | --- | --- | --- | --- | --- | --- | --- | --- | --- | --- | --- | --- | --- | --- | --- | --- | --- |
| Cc1ccc(F)c(NC(=O)Nc2ccc(-c3cccc4c3c(N)nn4C(=O)C[C@H](N)C(=O)N[C@@H](CCC(=O)N[C@@H](CCC(=O)N[C@@H](CCC(=O)N[C@@H](CCC(=O)N[C@@H](CCC(=O)N[C@@H](CCC(=O)N[C@@H](CCC(=O)N[C@@H](CCC(=O)N[C@@H](CCC(=O)O)C(=O)O)C(=O)O)C(=O)O)C(=O)O)C(=O)O)C(=O)O)C(=O)O)C(=O)O)C(=O)O)cc2)c1 [Compound 3] | 31 µM | 46.4 µM | 12.7 µM | 5.33 µM | 11.3 µM | 22.4 µM | 21.1 µM | 10.2 µM | close to those of Linifanib |  |  |  |  |  |  |  |  |  |  |  |
| Cc1ccc(F)c(NC(=O)Nc2ccc(-c3cccc4c3c(N)nn4C(=O)CCCCCCCCCCCNC(=O)C[C@H](N)C(=O)O)cc2)c1 [Compound 12] | > 30 µM | > 30 µM | > 30 µM | > 30 µM | > 30 µM | > 30 µM | > 30 µM | > 30 µM |  | close to zero | stably incubated in plasma; also recorded: stable in plasma | 1900 ng/mL and 2180 ng/mL | 2100 ng/mL and 2290 ng/mL | 2180 ng/mL and 2290 ng/mL | 2160 ng/mL and 2110 ng/mL | 2210 ng/mL and 2270 ng/mL | 2070 ng/mL and 1880 ng/mL | 1940 ng/mL and 2060 ng/mL |  |  |
| Cc1ccc(F)c(NC(=O)Nc2ccc(-c3cccc4c3c(N)nn4C(=O)CCCCCCCCCCCNC(=O)C[C@H](N)C(=O)N[C@@H](CCC(=O)N[C@@H](CCC(=O)N[C@@H](CCC(=O)N[C@@H](CCC(=O)N[C@@H](CCC(=O)N[C@@H](CCC(=O)N[C@@H](CCC(=O)N[C@@H](CCC(=O)N[C@@H](CCC(=O)O)C(=O)O)C(=O)O)C(=O)O)C(=O)O)C(=O)O)C(=O)O)C(=O)O)C(=O)O)C(=O)O)cc2)c1 [Compound 9] | > 100 µM | > 100 µM | 88.9 µM | 52.8 µM | > 100 µM | 70.5 µM | > 100 µM | 30.2 µM |  |  |  |  |  |  |  |  |  |  |  |  |
| Cc1ccc(F)c(NC(=O)Nc2ccc(-c3cccc4c3c(N)nn4C(=O)CCCCCCCCCCCNC(=O)C[C@H](N)C(=O)N[C@@H](CCC(=O)O)C(=O)O)cc2)c1 [Compound 7] | > 100 µM | > 100 µM | 63.6 µM | 13 µM | 74.3 µM | 54.3 µM | 86.7 µM | 15 µM |  |  |  |  |  |  |  |  |  |  |  |  |
| Cc1ccc(F)c(NC(=O)Nc2ccc(-c3cccc4c3c(N)nn4C(=O)CCCCCNC(=O)C[C@H](N)C(=O)N[C@@H](CCC(=O)O)C(=O)O)cc2)c1 [Compound 4] | > 100 µM | 98.8 µM | > 100 µM | 69.8 µM | > 100 µM | 36.9 µM | 99.5 µM | 51.7 µM |  |  |  |  |  |  |  |  |  |  |  |  |
| Cc1ccc(F)c(NC(=O)Nc2ccc(-c3cccc4c3c(N)nn4C(=O)CCCCCCCCCCCNC(=O)C[C@H](N)C(=O)N[C@@H](CCC(=O)N[C@@H](CCC(=O)N[C@@H](CCC(=O)N[C@@H](CCC(=O)O)C(=O)O)C(=O)O)C(=O)O)C(=O)O)cc2)c1 [Compound 8] | 48.6 µM | 38.5 µM | 42.7 µM | 36.2 µM | > 100 µM | 50.2 µM | > 100 µM | > 100 µM |  |  |  |  |  |  |  |  |  |  | did not produce | stable in plasma |
| Cc1ccc(F)c(NC(=O)Nc2ccc(-c3cccc4c3c(N)nn4C(=O)CCCCCNC(=O)C[C@H](N)C(=O)O)cc2)c1 [Compound 11] | 87.7 µM | 87.6 µM | > 100 µM | 50.4 µM | > 100 µM | 27.5 µM | > 100 µM | 40.7 µM |  |  |  |  |  |  |  |  |  |  |  |  |
| Cc1ccc(F)c(NC(=O)Nc2ccc(-c3cccc4[nH]nc(N)c34)cc2)c1 [Linifanib, reference compound] | 10 µM | 10.7 µM | 3.6 µM | 1.96 µM | 4.09 µM | 4.78 µM | 13.3 µM | 5.03 µM |  |  |  |  |  |  |  |  |  |  |  |  |
| Cc1ccc(F)c(NC(=O)Nc2ccc(-c3cccc4c3c(N)nn4C(=O)CCCCCNC(=O)C[C@H](N)C(=O)N[C@@H](CCC(=O)N[C@@H](CCC(=O)N[C@@H](CCC(=O)N[C@@H](CCC(=O)N[C@@H](CCC(=O)N[C@@H](CCC(=O)N[C@@H](CCC(=O)N[C@@H](CCC(=O)N[C@@H](CCC(=O)O)C(=O)O)C(=O)O)C(=O)O)C(=O)O)C(=O)O)C(=O)O)C(=O)O)C(=O)O)C(=O)O)cc2)c1 [Compound 6] | > 100 µM | > 100 µM | > 100 µM | 95.6 µM | > 100 µM | 67.8 µM | > 100 µM | 90.5 µM |  |  |  |  |  |  |  |  |  |  |  |  |
| Cc1ccc(F)c(NC(=O)Nc2ccc(-c3cccc4c3c(N)nn4C(=O)CCCCCNC(=O)C[C@H](N)C(=O)N[C@@H](CCC(=O)N[C@@H](CCC(=O)N[C@@H](CCC(=O)N[C@@H](CCC(=O)O)C(=O)O)C(=O)O)C(=O)O)C(=O)O)cc2)c1 [Compound 5] | > 100 µM | > 100 µM | > 100 µM | 76.5 µM | > 100 µM | 51.3 µM | > 100 µM | 70.3 µM |  |  |  |  |  |  |  |  |  |  |  |  |
